# Measurements published in patent US20080234288A1, “Hcv Inhibiting Sulfonamides” (priority 2003, published 2008).
# Where a name gives a salt, the structure may show the parent alone.
# Test system: HCV replicon (NS3-NS5B regions of HCV type 1b) in Huh-7 luc/neo cells
# Assay: HCV replicon assay, stable replicon cell reporter assay (Huh-Luc, luciferase)
# Assay type: cell-based
# Conditions: Hepatitis C virus, Huh-7, 72 h, incubation of three days, luciferase activity
# Source text: The compounds of the present invention were examined for activity in the inhibition of HCV RNA replication in a cellular assay. […] The cellular assay was based on a bicistronic expression construct, as described by Lohmann et al. (1999) Science vol. 285 pp. 110-113 with modifications described by Krieger et al. (2001) Journal of Virology 75: 4614-4624, in a multi-target screening strategy. In essence, the method is as follows.
# The assay utilized the stably transfected cell line Huh-7 luc/neo (hereafter referred to as Huh-Luc; kindly provided by Dr Ralf Bartenschlager, Reblikon GmBh, Germany). This cell line harbors an RNA encoding a bicistronic expression construct comprising the wild type NS3-NS5B regions of HCV type 1b translated from an Internal Ribosome Entry Site (IRES) from encephalomyocarditis virus (EMCV), preceded by a reporter portion (FfL-luciferase), and a selectable marker portion (neo^R, neomycine phosphotransferase). The construct was bordered by 5′ and 3′ NTRs (non-translated regions) from HCV type 1b. Continued culture of the replicon cells in the presence of G418 (neo^R) is dependent on the replication of the HCV RNA. The stably transfected replicon cells that express HCV RNA, which replicates autonomously and to high levels, encoding inter alia luciferase, were used for screening the antiviral compounds.
# The replicon cells were plated in 384 well plates in the presence of the test and control compounds which were added in various concentrations. Following an incubation of three days, HCV replication was measured by assaying luciferase activity (using standard luciferase assay substrates and reagents and a Perkin Elmer ViewLux™ ultraHTS microplate imager). Replicon cells in the control cultures have high luciferase expression in the absence of any inhibitor. The inhibitory activity of the compound on luciferase activity was monitored on the Huh-Luc cells, enabling a dose-response curve for each test compound. EC50 values were then calculated, which value represents the amount of the compound required to decrease by 50% the level of detected luciferase activity, or more specifically, the ability of the genetically linked HCV replicon RNA to replicate (Table 1).
compound,measurement,value
"CC(C)CN(CC(O)C(Cc1ccccc1)NC(=O)OCc1cncs1)S(=O)(=O)c1ccc2nc(NC(=O)CN(C)CCN3CCCC3)oc2c1 (centres unmarked) [Compound 32, {1-Benzyl-2-hydroxy-3-[isobutyl-(2-{2-[methyl-(2-pyrrolidin-1-yl-ethyl)-amino]-acetylamino}-benzooxazole-6-sulfonyl)-amino]-propyl}-carbamic acid thiazol-5-ylmethyl ester]",EC50,10 to 32 µM
"CC(C)CN(CC(O)C(Cc1ccccc1)NC(=O)OCc1cncs1)S(=O)(=O)c1ccc2nc(N(C)C)oc2c1 (centres unmarked) [Compound 33, {1-Benzyl-3-[(2-dimethylamino-benzooxazole-6-sulfonyl)-isobutyl-amino]-2-hydroxy-propyl}-carbamic acid thiazol-5-ylmethyl ester]",EC50,10 to 32 µM
"CC(C)CN(CC(O)C(Cc1ccccc1)NC(=O)OCc1cnco1)S(=O)(=O)c1ccc2nc(N)oc2c1 (centres unmarked) [Compound 34, {3-[(2-Amino-benzooxazole-6-sulfonyl)-isobutyl-amino]-1-benzyl-2-hydroxy-propyl}-carbamic acid oxazol-5-ylmethyl ester]",EC50,10 to 32 µM
"CC(C)CN(CC(O)C(Cc1ccccc1)NC(=O)OCc1cncs1)S(=O)(=O)c1ccc2nc(NC(=O)c3ccncc3)oc2c1 (centres unmarked) [Compound 35, [1-Benzyl-2-hydroxy-3-(isobutyl-{2-[(pyridine-4-carbonyl)-amino]-benzooxazole-6-sulfonyl}-amino)-propyl]-carbamic acid thiazol-5-ylmethyl ester]",EC50,< 2 µM
"CC(C)CN(CC(O)C(Cc1ccccc1)NC(=O)OCc1cncs1)S(=O)(=O)c1ccc2nc(N(C)C(=O)c3ccccn3)oc2c1 (centres unmarked) [Compound 36, [1-Benzyl-2-hydroxy-3-(isobutyl-{2-[methyl-(pyridine-2-carbonyl)-amino]-benzooxazole-6-sulfonyl}-amino)-propyl]-carbamic acid thiazol-5-ylmethyl ester]",EC50,10 to 32 µM
"CC(C)CN(CC(O)C(Cc1ccccc1)NC(=O)OCc1cncs1)S(=O)(=O)c1ccc2nc(N(C)C(=O)C3CCCN(C)C3)oc2c1 (centres unmarked) [Compound 37, [1-Benzyl-2-hydroxy-3-(isobutyl-{2-[methyl-(1-methyl-piperidine-3-carbonyl)-amino]-benzooxazole-6-sulfonyl}-amino)-propyl]-carbamic acid thiazol-5-ylmethyl ester]",EC50,10 to 32 µM
"CC(C)CN(CC(O)C(Cc1ccccc1)NC(=O)OCc1cncs1)S(=O)(=O)c1ccc2nc(N(C)C(=O)C3CCN(C)CC3)oc2c1 (centres unmarked) [Compound 38, [1-Benzyl-2-hydroxy-3-(isobutyl-{2-[methyl-(1-methyl-piperidine-4-carbonyl)-amino]-benzooxazole-6-sulfonyl}-amino)-propyl]-carbamic acid thiazol-5-ylmethyl ester]",EC50,10 to 32 µM
"CC(C)CN(CC(O)C(Cc1ccccc1)NC(=O)OCc1cncs1)S(=O)(=O)c1ccc2nc(N(C)C(=O)c3ccnc(Cl)c3)oc2c1 (centres unmarked) [Compound 39, [1-Benzyl-3-({2-[(2-chloro-pyridine-4-carbonyl)-methyl-amino]-benzooxazole-6-sulfonyl}-isobutyl-amino)-2-hydroxy-propyl]-carbamic acid thiazol-5-ylmethyl ester]",EC50,10 to 32 µM
"CC(C)CN(CC(O)C(Cc1ccccc1)NC(=O)OCc1cncs1)S(=O)(=O)c1ccc2nc(N(C)C(=O)C3CCCN3C)oc2c1 (centres unmarked) [Compound 40, [1-Benzyl-2-hydroxy-3-(isobutyl-{2-[methyl-(1-methyl-pyrrolidine-2-carbonyl)-amino]-benzooxazole-6-sulfonyl}-amino)-propyl]-carbamic acid thiazol-5-ylmethyl ester trifluoroacetate salt]",EC50,10 to 32 µM
"CC(C)CN(CC(O)C(Cc1ccccc1)NC(=O)OCc1cncs1)S(=O)(=O)c1ccc2ncn(CCc3ccccc3)c2c1 (centres unmarked) [Compound 41, {1-Benzyl-2-hydroxy-3-[isobutyl-(3-phenethyl-3H-benzo-imidazole-5-sulfonyl)-amino]-propyl}-carbamic acid thiazol-5-ylmethyl ester]",EC50,10 to 32 µM
"CC(C)CN(CC(O)C(Cc1ccccc1)NC(=O)OCc1cncs1)S(=O)(=O)c1ccc2ncn(CC(C)C)c2c1 (centres unmarked) [Compound 42, {1-Benzyl-2-hydroxy-3-[isobutyl-(3-isobutyl-3H-benzo-imidazole-5-sulfonyl)-amino]-propyl}-carbamic acid thiazol-5-ylmethyl ester]",EC50,2 to 10 µM
"CC(C)CN(CC(O)C(Cc1ccccc1)NC(=O)OCc1cncs1)S(=O)(=O)c1ccc(-c2csc(Nc3ccncc3)n2)cc1 (centres unmarked) [Compound 43, [1-Benzyl-2-hydroxy-3-(isobutyl-{4-[2-(pyridin-4-ylamino)-thiazol-4-yl]-benzenesulfonyl}-amino)-propyl]-carbamic acid thiazol-5-ylmethyl ester]",EC50,< 2 µM
"Cc1nc(-c2ccc(S(=O)(=O)N(CC(C)C)CC(O)C(Cc3ccccc3)NC(=O)OCc3cncs3)cc2)co1 (centres unmarked) [Compound 44, (1-Benzyl-2-hydroxy-3-{isobutyl-[4-(2-methyl-oxazol-4-yl)-benzenesulfonyl]-amino}-propyl)-carbamic acid thiazol-5-ylmethyl ester]",EC50,10 to 32 µM
"CC(C)CN(CC(O)C(Cc1ccccc1)NC(=O)OCc1cncs1)S(=O)(=O)c1ccc2nc(N)oc2c1 (centres unmarked) [Compound 45, {3-[(2-Amino-benzooxazole-6-sulfonyl)-isobutyl-amino]-1-benzyl-2-hydroxy-propyl}-carbamic acid thiazol-5-ylmethyl ester]",EC50,2 to 10 µM
